Test results published in US8198325B2, “Unsaturated alkyl esters of 5-aminolevulinic acid, their preparation and their use” (Industry Foundation of Chonnam National University, priority 2006, dated 2012).

Columns and labels:
[1] = tested on: Malignant melanoma (TMX 13); test: Cytotoxicity test (cell survival), MTT assay, TXM 13; type: cell-based; conditions: 24 hours
Procedure: (§1) 3. Cytotoxicity Test (Cell Survival Test)
(§2) Cytotoxicity was conducted through an MTT assay (Chemicon, Serologicals Corporation, USA) as follows.
(§3) Cells were seeded at a density of 3×10^4 cells/well in 96-well plates (Nunc Do, Denmark).
(§4) When the cells were at a confluence of about 60˜70%, 24 hours after seeding, the media was exchanged for 100 μl of fresh, serum-free media containing various respective concentrations of ALA or ALA-ester, after which the cells were incubated for an additional 24 hours.
(§5) An MTT solution (0.5 mg/mL) was added in an amount of […] to each well, followed by incubation for 4 hours to form formazan crystals. A color-developing solution (isopropanol with 0.04 N HCl) was added in an amount of […] per well to solubilize the formazan crystals.
(§6) The plates were measured for absorbance at 570 nm using an ELISA reader (EMAX, Molecular Device, USA).
(4) Malignant Melanoma (TMX 13)

[2] = tested on: Human dermal fibroblast (hF); test: Cytotoxicity test (cell survival), MTT assay, hF; type: cell-based; conditions: 24 hours
Procedure: as §1, §2, §3, §4, §5, §6
(2) Human Dermal Fibroblast (hF)

[3] = tested on: Human epidermal keratinocyte (HEK); test: Cytotoxicity test (cell survival), MTT assay, HEK; type: cell-based; conditions: 24 hours; for MTT absorbance (OD): 570 nm; for Cell survival Avg (%) ± SD (%): Table 3; for activity at 10 µM / activity at 2000 µM / activity at 50 µM / activity at 100 µM / activity at 500 µM / activity at 1000 µM / activity at 5000 µM: Homo sapiens, Table 2, read-out: Cell survival (% of control C, in brackets); for activity at 10 µM: HEK001, 0.01 mM; for activity at 2000 µM: HEK2, 2 mM; for activity at 50 µM / activity at 100 µM / activity at 500 µM / activity at 1000 µM / activity at 5000 µM: Keratinocyte
Procedure: as §1, §2, §3, §4, §5, §6
(1) Human Epidermal Keratinocyte (HEK)
Cell survival of the human epidermal keratinocytes treated with ALA esters of the present invention and with ALA was compared. The results are summarized in Tables 1 and 2, which are represented in different manners depending on the measurements.

A431 cells = test: Fluorescence spectroscopy of PpIX synthesis in A431 cells (FIG. 1); type: cell-based; conditions: 4 hours incubation, excitation 405 nm, emission 605 nm
Procedure: 4. Fluorescence Spectroscopy
The synthesis of PpIX, induced by ALA and unsaturated alkyl esters of ALA in cells and skin tissues, was quantified using fluorescence spectroscopy.
The intensity of PpIX was measured on a fluorescence spectrophotometer (Uvikon, model 943) with excitation at 408 nm.
Each cell line was plated at a density of 2×10^5 cells in a 10 cm^2-dish (Falcon), and when the cells reached a confluent state of 70˜80%, serum-free media containing various concentrations (0.001˜1 mM) of ALA or ALA esters was added to the cells, followed by incubation for 4 hours.
After being washed once with PBS, the cells were detached with a 50% methanol solution containing 1M […] (HClO4) and scraped off using a Costar cell scraper.
The cells thus harvested were incubated for 5 min and centrifuged.
The fluorescence of the supernatant thus obtained was determined using a spectrofluorometer with excitation at 405 nm and emission at 605 nm.
The results are graphed in FIGS. 1 and 2.

[4] = tested on: Squamous cell carcinoma (A431); test: Cytotoxicity test (cell survival), MTT assay, A431; type: cell-based; conditions: 24 hours
Procedure: as §1, §2, §3, §4, §5, §6
(3) Squamous Cell Carcinoma (A431)

[5] = tested on: skin of ICR mice (epidermis, sebaceous gland); test: Cell death in skin tissue after ointment and LED irradiation, H&E (FIGS. 9, 10); type: in vivo
Procedure: Ointments comprising ALA or the ALA esters of the present invention at various concentrations (5˜15%) were applied in a predetermined amount ([…]) to the back of shaved ICR mice.
1 and 4 hours after the application, the back was irradiated with LED visible light (dose 25 J/cm^2).
24, 48 and 72 hours after the irradiation, skin samples were taken from the back of the mice, stained with hematoxylin-eosin (H&E) and observed for cell death.

## C=CCCCCOC(=O)CCC(=O)CN [ALA-6, 5-Aminolevulinic acid 5-hexenyl ester]
[1]; TXM 13, 0.01 mM
  Cell survival Avg ± SD (%): 92.05 ± 9.09%
[1]; TXM 13, 0.05 mM
  Cell survival Avg ± SD (%): 99.41 ± 8.25%
[1]; TXM 13, 0.1 mM
  Cell survival Avg ± SD (%): 81.45 ± 6.38%
[1]; TXM 13, 0.5 mM
  Cell survival Avg ± SD (%): 77.18 ± 8.17%
[1]; TXM 13, 1 mM
  Cell survival Avg ± SD (%): 76.06 ± 6.81%
[1]; TXM 13, 2 mM
  Cell survival Avg ± SD (%): 53.24 ± 6.8%
[2]; 0.01 mM
  Cell survival Avg (%) ± SD (%): 113.29 ± 13.51%
[2]; 0.05 mM
  Cell survival Avg (%) ± SD (%): 98.47 ± 13.03%
[2]; 0.1 mM
  Cell survival Avg (%) ± SD (%): 92.42 ± 13.86%
[2]; 0.5 mM
  Cell survival Avg (%) ± SD (%): 91.41 ± 9.04%
[2]; 1 mM
  Cell survival Avg (%) ± SD (%): 80.78 ± 5.6%
[2]; 2 mM
  Cell survival Avg (%) ± SD (%): 86.12 ± 5.37%
[3]; 0.01 mM
  MTT absorbance (OD): 3.13 OD
  Cell survival Avg (%) ± SD (%): 106.44 ± 0.37%
[3]; 0.05 mM
  MTT absorbance (OD): 3.413 OD
  Cell survival Avg (%) ± SD (%): 77.97 ± 0.88%
  activity at 50 µM: 99.4%
[3]; 0.1 mM
  MTT absorbance (OD): 3.18 OD
  Cell survival Avg (%) ± SD (%): 69 ± 3.42%
  activity at 100 µM: 92.7%
[3]; 0.5 mM
  MTT absorbance (OD): 2.521 OD
  Cell survival Avg (%) ± SD (%): 61.39 ± 3.22%
  activity at 500 µM: 73.4%
[3]; 1 mM
  MTT absorbance (OD): 2.548 OD
  Cell survival Avg (%) ± SD (%): 62 ± 5.58%
  activity at 1000 µM: 74.3%
[3]; 2 mM
  MTT absorbance (OD): 2.306 OD
  Cell survival Avg (%) ± SD (%): 62 ± 1.59%
[3]; 5 mM
  MTT absorbance (OD): 1.388 OD
  activity at 5000 µM: 40.2%
[3]
  activity at 10 µM: 91.2%
  activity at 2000 µM: 67.3%
A431 cells
  PpIX synthesis compared with ALA: greater PpIX synthesis in A431 cells than did ALA
[4]; A431, 0.01 mM
  Cell survival Avg (%) ± SD (%): 101.04 ± 0.88%
[4]; A431, 0.05 mM
  Cell survival Avg (%) ± SD (%): 91.32 ± 3.42%
[4]; A431, 0.1 mM
  Cell survival Avg (%) ± SD (%): 86.8 ± 3.22%
[4]; A431, 0.5 mM
  Cell survival Avg (%) ± SD (%): 84.16 ± 5.58%
[4]; A431, 1 mM
  Cell survival Avg (%) ± SD (%): 88.47 ± 4.59%
[4]; A431, 2 mM
  Cell survival Avg (%) ± SD (%): 66.21 ± 4.43%
[5]; 24 hours after visible light 25 J/cm^2, FIG. 10
  Sebaceous gland morphology after irradiation: destroyed partially or wholly
[5]; 48 hours after visible light 25 J/cm^2, FIGS. 9B and 9C
  Epidermis histology (H&E) after irradiation: both necrosis and rejuvenation

## C=CCCOC(=O)CCC(=O)CN [ALA-3, 5-Aminolevulinic acid 3-butenyl ester]
[1]; TXM 13, 0.01 mM
  Cell survival Avg ± SD (%): 102.16 ± 10.55%
[1]; TXM 13, 0.05 mM
  Cell survival Avg ± SD (%): 95.03 ± 10%
[1]; TXM 13, 0.1 mM
  Cell survival Avg ± SD (%): 96.89 ± 7.99%
[1]; TXM 13, 0.5 mM
  Cell survival Avg ± SD (%): 90.58 ± 3.8%
[1]; TXM 13, 1 mM
  Cell survival Avg ± SD (%): 92.34 ± 4.31%
[1]; TXM 13, 2 mM
  Cell survival Avg ± SD (%): 78.81 ± 6.22%
[2]; 0.01 mM
  Cell survival Avg (%) ± SD (%): 114.28 ± 5.4%
[2]; 0.05 mM
  Cell survival Avg (%) ± SD (%): 126.76 ± 3.88%
[2]; 0.1 mM
  Cell survival Avg (%) ± SD (%): 115.65 ± 6.85%
[2]; 0.5 mM
  Cell survival Avg (%) ± SD (%): 110.21 ± 4.21%
[2]; 1 mM
  Cell survival Avg (%) ± SD (%): 96.59 ± 16.88%
[2]; 2 mM
  Cell survival Avg (%) ± SD (%): 94.97 ± 9.7%
[3]; 0.01 mM
  MTT absorbance (OD): 2.919 OD
  Cell survival Avg (%) ± SD (%): 116.69 ± 0.69%
[3]; 0.05 mM
  MTT absorbance (OD): 3.57 OD
  Cell survival Avg (%) ± SD (%): 94.01 ± 0.59%
  activity at 50 µM: 103%
[3]; 0.1 mM
  MTT absorbance (OD): 3.413 OD
  Cell survival Avg (%) ± SD (%): 125.58 ± 0.51%
  activity at 100 µM: 98.2%
[3]; 0.5 mM
  MTT absorbance (OD): 2.838 OD
  Cell survival Avg (%) ± SD (%): 88.14 ± 0.51%
  activity at 500 µM: 81.8%
[3]; 1 mM
  MTT absorbance (OD): 2.592 OD
  Cell survival Avg (%) ± SD (%): 72.02 ± 3.82%
  activity at 1000 µM: 74.9%
[3]; 2 mM
  MTT absorbance (OD): 2.185 OD
  Cell survival Avg (%) ± SD (%): 83.69 ± 4.75%
[3]; 5 mM
  MTT absorbance (OD): 2.101 OD
  activity at 5000 µM: 60.5%
[3]
  activity at 10 µM: 83.8%
  activity at 2000 µM: 63.1%
[4]; A431, 0.01 mM
  Cell survival Avg (%) ± SD (%): 104.08 ± 0.59%
[4]; A431, 0.05 mM
  Cell survival Avg (%) ± SD (%): 105.59 ± 0.51%
[4]; A431, 0.1 mM
  Cell survival Avg (%) ± SD (%): 105.48 ± 0.51%
[4]; A431, 0.5 mM
  Cell survival Avg (%) ± SD (%): 97.46 ± 3.82%
[4]; A431, 1 mM
  Cell survival Avg (%) ± SD (%): 97.65 ± 4.75%
[4]; A431, 2 mM
  Cell survival Avg (%) ± SD (%): 102.85 ± 1.53%

## C=CCCCOC(=O)CCC(=O)CN [ALA-4, 5-Aminolevulinic acid 4-pentenyl ester]
[1]; TXM 13, 0.01 mM
  Cell survival Avg ± SD (%): 96.3 ± 14.69%
[1]; TXM 13, 0.05 mM
  Cell survival Avg ± SD (%): 83.42 ± 12.09%
[1]; TXM 13, 0.1 mM
  Cell survival Avg ± SD (%): 72.55 ± 9.25%
[1]; TXM 13, 0.5 mM
  Cell survival Avg ± SD (%): 75.01 ± 13.79%
[1]; TXM 13, 1 mM
  Cell survival Avg ± SD (%): 60.95 ± 8.31%
[1]; TXM 13, 2 mM
  Cell survival Avg ± SD (%): 49.85 ± 53.24%
[2]; 0.01 mM
  Cell survival Avg (%) ± SD (%): 101.13 ± 13.45%
[2]; 0.05 mM
  Cell survival Avg (%) ± SD (%): 114.49 ± 17.1%
[2]; 0.1 mM
  Cell survival Avg (%) ± SD (%): 103.35 ± 14.09%
[2]; 0.5 mM
  Cell survival Avg (%) ± SD (%): 95.81 ± 10.6%
[2]; 1 mM
  Cell survival Avg (%) ± SD (%): 100.32 ± 6.36%
[2]; 2 mM
  Cell survival Avg (%) ± SD (%): 93.13 ± 8.07%
[3]; 0.01 mM
  MTT absorbance (OD): 2.8 OD
[3]; 0.05 mM
  MTT absorbance (OD): 2.603 OD
  Cell survival Avg (%) ± SD (%): 66.21 ± 0.59%
  activity at 50 µM: 71.6%
[3]; 0.1 mM
  MTT absorbance (OD): 2.98 OD
  Cell survival Avg (%) ± SD (%): 53.63 ± 0.51%
  activity at 100 µM: 82%
[3]; 0.5 mM
  MTT absorbance (OD): 2.561 OD
  Cell survival Avg (%) ± SD (%): 50.17 ± 0.51%
  activity at 500 µM: 70.5%
[3]; 1 mM
  MTT absorbance (OD): 2.475 OD
  Cell survival Avg (%) ± SD (%): 57.17 ± 1.60%
  activity at 1000 µM: 68.3%
[3]; 2 mM
  MTT absorbance (OD): 2.407 OD
  Cell survival Avg (%) ± SD (%): 44.82 ± 3.43%
[3]; 5 mM
  MTT absorbance (OD): 1.354 OD
  activity at 5000 µM: 37.1%
[3]
  activity at 10 µM: 77.3%
  activity at 2000 µM: 66.3%
A431 cells
  PpIX synthesis compared with ALA: greater PpIX synthesis in A431 cells than did ALA
[4]; A431, 0.01 mM
  Cell survival Avg (%) ± SD (%): 101.68 ± 0.81%
[4]; A431, 0.05 mM
  Cell survival Avg (%) ± SD (%): 102.51 ± 0.54%
[4]; A431, 0.1 mM
  Cell survival Avg (%) ± SD (%): 93.24 ± 2.17%
[4]; A431, 0.5 mM
  Cell survival Avg (%) ± SD (%): 80.91 ± 1.6%
[4]; A431, 1 mM
  Cell survival Avg (%) ± SD (%): 80.11 ± 3.43%
[4]; A431, 2 mM
  Cell survival Avg (%) ± SD (%): 84.57 ± 1.77%
